Measurements: patent publication US20060084697A1, “Pi3k antagonists as radiosensitizers” (priority 2002, published 2006)

Columns and labels:
[1] = tested on: Akt; test: Western blot of radiation-induced Akt phosphorylation in HUVEC; assay type: cell-based, human
Excerpt: HUVEC cells were obtained from Clonetics and were maintained in EBM-2 medium supplemented with EGM™-2MV SINGLEQUOTS® (Bio-Whittaker, Inc., Walkersville, Md., United States of America). An Eldorado-8 Cobalt-60 teletherapy unit (Atomic Energy of Canada Limited, Mississauga, Ontario, Canada) was used to irradiate endothelial cell cultures at a dose rate of 0.84 Gy per minute. Delivered doses ranging from 0 to 12 Gy were verified by use of thermoluminescence detectors.
In order to determine if Akt is phosphorylated in response to irradiation, cultured HUVEC cells were serum starved for 4 hours, exposed to irradiation, and the phosphorylation of Akt was examined in cell extracts by Western blotting. Total cellular protein was extracted after radiation treatment as follows. Cells were counted and then washed with iced-cold PBS twice before the addition of lysis buffer (M-PER™ mammalian protein extraction reagent; Pierce Chemical Company, Rockford, Ill., United States of America; or 20 mM Tris, 150 mM NaCl, 1 mM EDTA, 1% Triton X-100, 2.5 mM sodium pyrophosphate, 1 mM phenylmethylsulphonyl fluoride (PMSF), and […] Leupeptin (Roche Molecular Biochemicals, Indianapolis, Ind., United States of America)). Protein concentrations were quantified using the Biorad method (Bradford, 1976). 50 μg protein was loaded into each well of an 8% sodium dodecyl […]-polyacrylamide gel electrophoresis (SDS-PAGE) gel and separated by electrophoresis. The proteins were subsequently transferred onto 0.45 μm nitrocellulose membranes. Membranes were blocked by incubation for 2 hours at room temperature in phosphate buffered saline-Triton (PBST: 0.9% NaCl, 0.3% Triton X-100, pH 7.4) containing 10% nonfat dry milk.
The presence of Akt protein on the membrane was determined as follows. The membranes were incubated with a 1:1000 dilution of rabbit antibody directed against either phosphorylated (Ser473) or non-phosphorylated human Akt overnight at 4° C. Rabbit antibodies were obtained from Cell Signaling Technology, Beverly, Mass., United States of America. The blots were then washed with PBST to remove unbound rabbit antibodies. The washed blots were then incubated for 1 hour at room temperature with a donkey anti-rabbit IgG secondary antibody (Amersham Biosciences, Piscataway, N.J., United States of America) diluted 1:1000 in PBST. The blots were again washed with PBST to remove unbound donkey antibodies. The presences of both phosphorylated and non-phosphorylated human Akt were determined by chemiluminescent detection of donkey anti-rabbit/rabbit anti-human Akt complexes using the ECL™ detection system (Amersham Biosciences) according to the manufacturer's protocol, followed by autoradiography. […]

[2] = tested on: Akt; test: Western immunoblot of radiation-induced Akt phosphorylation in endothelial cells; assay type: cell-based; details: for radiation-induced activation of Akt: irradiated vascular endothelium, summary statement
Experimental: Broad spectrum RTK inhibitors were tested for their abilities to attenuate radiation-induced phosphorylation of Akt. SU6668, a tyrosine kinase inhibitor of VEGFR, PDGFR, FGFR, and c-Kit, was added to endothelial cells prior to irradiation. Western immunoblots using phospho-specific antibodies to phosphorylated Akt (P-Akt) were prepared.
(§1) The role of RTKs in radiation-induced activation of the Akt signaling pathway was examined by studying a panel of tyrosine kinase inhibitors including PDGF receptor antagonists in primary culture endothelial cells. PDGF receptor antagonists including SU6668, SU11248, and STI571, attenuated radiation-induced phosphorylation of both Akt and Erk. […] Similar efficacy in blocking Erk1/2 phosphorylation in irradiated endothelial cells was found.

[3] = tested on: Erk1/2; test: Radiation-induced Erk phosphorylation in endothelial cells; assay type: cell-based; details: for radiation-induced phosphorylation of Erk: primary culture endothelial cells (Example 16)
Experimental: Phosphorylation of MEK and Erk proteins was also investigated. Erk1/2 was activated following a single 3 Gy dose of irradiation. Erk was phosphorylated within 15 minutes, which resolved within 60 minutes. SU6668 is a broad spectrum inhibitor of split kinase domain RTKs, including Flk-1, Flt-1, PDGFR, fibroblast growth factor receptor (FGFR), and c-Kit (Mendel et al, 2003).
as §1

[4] = tested on: HUVEC cells; test: Clonogenic survival analysis of HUVEC; assay type: cell-based, human; details: HUVEC treated with SU11248 prior to irradiation; p<0.05
Experimental: The ability of PI3K antagonist to suppress the clonogenic potential of HUVEC cells treated with radiation was assayed by clonogenic survival analysis. The ability of HUVEC cells treated with LY294002 30 minutes prior to irradiation to form colonies was compared to that of HUVEC cells treated with either radiation or LY294002 alone, and also to that of untreated HUVEC cells. […] Briefly, groups of three HUVEC culture plates were treated at each of four radiation dose levels: 2, 4, 6, and 8 Gy, either with or without prior treatment with PI3K antagonists as described in Example 2. After treatment with radiation and/or antagonists, cells were trypsinized, counted by hemocytometer, and subcultured into fresh medium. After 14 days, the cells were fixed with cold methanol and stained with 1% methylene blue. Colonies with greater than 50 cells were counted and the surviving fraction was determined.

[5] = tested on: tumors; test: Maintenance SU11248 after radiation, tumor growth delay; assay type: in vivo
Experimental: Upon the discontinuation of therapy, tumors rapidly regrow. To determine whether maintenance of SU11248 beyond the completion of radiation improved growth delay, this RTK inhibitor was administered twice daily continuously in groups treated with radiation alone or SU11248 and radiation. Beginning after day 8, three groups (drug alone, radiation+vehicle, and combined therapy) were maintained with twice daily intraperitoneal administrations of 20 mg/kg SU11248 for an additional 7 days. Maintenance treatment was discontinued after day 17, and subsequently resumed after four days of drug holiday.

[6] = tested on: PDGFRβ; test: Phospho-PDGFRβ immunohistochemistry of GL261 tumors; assay type: in vivo, C57BL6 mice; details: administered one hour prior to 3 Gy
Excerpt: To determine to the level of phosphorylation of PDGF receptor, GL261 mouse tumor models were sectioned and stained. A phospho-specific antibody to PDGFRβ Tyr751 (Cell Signaling Technology, Beverly, Mass., United States of America) was used. Tumors produced by injecting GL261 murine glioma cells into the hind limb of C57BL6 mice were stained for phospho-PDGFRβ and visualized using immunohistochemistry. Phospho-PDGFRβ staining was graded as 2+ relative to staining in negative controls.
To determine whether cytotoxic therapy alters PDGFRβ phosphorylation, the tumor was irradiated (3 Gy) and snap frozen following irradiation. […] Positive staining for phosphorylated PDGFR was found in endothelium and tumor stroma.
Western immunoblots were performed to verify radiation induced an increase in phosphorylation of PDGFRβ. Protein extracted from irradiated HUVEC had increased phosphorylation of PDGFRβ.

[7] = tested on: tumor vasculature; test: Intravital tumor vascular window, vascular length density, SU11248; assay type: in vivo, mice
Experimental: Growth factors produced by tumors could enhance the viability of tumor vascular endothelium. To determine whether SU11248 enhances radiation-induced destruction of tumor vasculature, SU11248 was administered to mice prior to irradiation with 3 Gy. Tumor vascular linear density was measured by use of intravital tumor vascular window. […] Five mice were treated in each of the treatment groups, and the vascular length density after treatment was quantified. Mean vascular length densities over four days are shown as a bar graph.

[8] = tested on: HUVECs; test: Apoptotic nuclei in HUVEC, SU11248 and 6 Gy; assay type: cell-based, human; details: 24 hours
Experimental: To determine whether broad spectrum RTK inhibition enhances the cytotoxic effects of radiation on vascular endothelium, SU11248 was added 30 minutes prior to irradiation. HUVECs were treated with vehicle control, and either 100 nM SU11248 orvehicle combined with 6 Gy. […] Untreated control cells show 2% apoptotic nuclei as compared to 7 and 8% after treatment with SU11248 or radiation, respectively (p>0.1). […] To determine whether enhanced apoptotic response in endothelial cells treated with SU11248 results in reduced clonogenic cell survival, HUVEC were subcultured and colony formation was quantified.

[9] = tested on: tumors; test: Power Doppler tumor blood flow, SU11248 and radiation; assay type: in vivo; details: p<0.053
Excerpt: To determine whether prolonged growth delay correlated with reduction in tumor blood flow, amplitude modulated Power Doppler was used to monitor blood flow. Reduced blood flow in tumors treated with SU11248 and radiation correlated with improved tumor growth delay.

[10] = tested on: GL261 hind limb tumors; test: Tumor growth delay, GL261 hind limb tumors, SU11248; assay type: in vivo, mice; details: SU11248 prior to daily 3 Gy fractions, p<0.05
Experimental: (§2) Destruction of tumor vasculature results in ischemia, which could reduce radiosensitivity of tumors. To determine whether SU11248 enhances tumor growth delay in irradiated tumors, mice bearing LLC and GL261 hind limb tumors were treated with intraperitoneal injection of 40 mg/kg SU11248 or control vehicle 30 minutes prior to each 3 Gy dose of radiation for a total of seven administrations. Both the inhibitor and radiation were discontinued after day 8. Time to doubling of LLC tumor size was 5, 6, 8 and 16 days for vehicle, SU11248, vehicle+21 Gy, and SU11248+21 Gy, respectively.

[11] = tested on: LLC hind limb tumors; test: Tumor growth delay, LLC hind limb tumors; assay type: in vivo, mice
Experimental: as §2

[12] = tested on: tumor endothelium; test: TUNEL and vWF co-staining of tumor sections; assay type: in vivo
Excerpt: To determine whether SU11248 interacts with radiation through the induction of apoptosis in tumor endothelium, TUNEL staining of tumor sections was utilized. Tumor sections were co-stained for the endothelial marker von Willebrand factor (vWF) and TUNEL.

[13] = tested on: HUVEC cells; test: Apoptotic nuclei in HUVEC, H&E staining; assay type: cell-based, human; details: wortmannin 4 nM or LY294002 2 μM, 24 hours
Experimental: To determine whether PI3K antagonists enhance the activities of intrinsic cell death mechanisms induced by irradiation, apoptosis in HUVEC cells was studied following PI3K inhibition. HUVEC cells were treated with wortmannin (4 nM) or with LY294002 (2 μM) as described in Example 2. Cells were treated 30 minutes later with 3 Gy of ionizing radiation. Cultures were stained 24 hours later with hematoxylin and eosin (H&E) to reveal apoptotic nuclei. Stained cells were then examined by light microscopy. For each treatment group, four high power fields (40× objective) were examined, and both the number of cells with apoptotic nuclei and the total number of cells were determined. From these numbers, the percentage of apoptotic cells for each group was calculated.

[14] = added to endothelial cells prior to irradiation (Example 15)
[15] = primary culture endothelial cells (Example 16)

Structure (SMILES): CCCCCCCCCCCCCC(=O)N[C@H](C)[C@@H](O)c1ccccc1 [MAPP]
- Akt phosphorylation in response to 3 Gy irradiation ([1]; antagonists added to HUVEC in culture (Example 18)): did not attenuate

Structure (SMILES): O=c1c(-c2ccc(O)cc2)coc2cc(O)cc(O)c12 [Genistein, 4′,5,7-trihydroxyisoflavone]
- radiation-induced activation of Akt [2]: attenuates

Structure (SMILES): Cc1[nH]c(C=C2C(=O)Nc3ccccc32)c(C)c1CCC(=O)O [SU6668, 3-[2,4-dimethyl-5-(2-oxo-1,2-dihydro-indol-3-ylidenemethyl)-1H-pyrrol-3-yl]-propionic acid]
- radiation-induced phosphorylation of Akt [2, 14]: blocked
- radiation-induced activation of Akt [2]: attenuate
- radiation-induced phosphorylation of Akt [2, 15]: attenuated
- Erk 1/2 phosphorylation ([3]; added 30 minutes prior to irradiation, 3 Gy, did not entirely eliminate activation): attenuated
- radiation-induced phosphorylation of Erk [3]: attenuated

Structure (SMILES): Cc1cc(C)c(/C=C2\C(=O)Nc3ccccc32)[nH]1 [SU5416]
- radiation-induced phosphorylation of Akt [2, 14]: did not attenuate

Structure (SMILES): Cc1ccc(NC(=O)c2ccc(CN3CCN(C)CC3)cc2)cc1Nc1nccc(-c2cccnc2)n1 [STI571]
- radiation-induced phosphorylation of Akt [2, 15]: attenuated
- radiation-induced phosphorylation of Erk [3]: attenuated

Structure (SMILES): CCN(CC)CCNC(=O)c1c(C)[nH]c(/C=C2\C(=O)Nc3ccc(F)cc32)c1C [SU11248]
- clonogenic survival compared to radiation alone [4]: significant reduction
- growth to 4-fold that of day 0 tumors ([5]; maintenance 20 mg/kg i.p. twice daily for 7 days after day 8, p<0.05 in all groups): significantly delays
- tumor growth after re-initiation of SU11248 ([5]; re-initiation at day 21 after four days of drug holiday): second phase of tumor growth delay
- radiation-induced PDGFR phosphorylation [6]: markedly attenuated
- vascular length density, % of that at 0 hour ([7]; SU11248 alone): 84%
- vascular length density, % of that at 0 hours ([7]; SU11248 followed by 3 Gy, within 72 hours, p<0.01): 8%
- endothelial cells with apoptotic nuclei ([8]; 100 nM SU11248 30 minutes prior to 6 Gy): 21%
- endothelial cells with apoptotic nuclei ([8]; 100 nM SU11248 alone, untreated 2%): 7%
- tumor blood flow compared to radiation alone [9]: approached significant reduction
- tumor growth delay compared to either agent alone [10]: significant increase
- time to doubling of LLC tumor size ([11]; 40 mg/kg i.p. 30 minutes prior to each 3 Gy dose, 21 Gy total, vehicle+21 Gy 8 days): 16 days
- time to doubling of LLC tumor size ([11]; 40 mg/kg i.p., seven administrations, no radiation, vehicle 5 days): 6 days
- tumor growth delay compared to either agent alone ([11]; LLC, SU11248 prior to daily 3 Gy fractions, p<0.05): significant increase
- radiation-induced activation of Akt [2]: attenuate
- radiation-induced phosphorylation of Akt [2, 15]: attenuated
- radiation-induced phosphorylation of Erk [3]: attenuated
- apoptotic cells in tumor sections ([12]; SU11248 alone): could not be detected
- apoptotic cells in tumor sections ([12]; radiation and SU11248, 24 hours following treatment, no apoptotic tumor cells): TUNEL positive endothelial cells

Structure (SMILES): COC[C@H]1OC(=O)c2coc3c2[C@@]1(C)C1=C(C3=O)[C@@H]2CCC(=O)[C@@]2(C)C[C@H]1OC(C)=O [wortmannin, Wortmannin]
- total Akt levels ([1]; HUVEC, wortmannin 4 nM or LY294002 2 μM): no effect
- apoptotic nuclei, % of cells ([13]; HUVEC pretreated 30 minutes before 3 Gy): 17%
- apoptotic cells ([13]; unirradiated HUVEC): 3%
